The values below come from patent US12708620B2, “Prodrugs and medical uses thereof” (priority 2018, dated 2026).

Data set [1] has as its system panel of cancer cell lines. In words: formation rate of Cpd.11c and Cpd.11d metabolites in cancer cell lines. In kind it is in vitro ADME, human. An excerpt: FIG. 3: cytotoxicity of Cpd.11 Ms and metabolites in normoxic and anoxic conditions in a panel of human cancer cell lines. […] The same panel of cell lines has been used to calculate the formation rate of Cpd.11c and Cpd.11d metabolites (B). A panel of human cell lines isolated from lung cancer (A-427, […], NCI-460, NCI-H1975), pancreatic cancer (Hs 766T, BxPC-3, Capan-1), and breast cancer (MDA-MB-453, SK-BR-3, EFM-19, Hs578t) has been exposed to synthetic version of Cpd.11c and Cpd.11d metabolites, that present cytotoxic properties also in normoxic conditions (C). The average plating efficiency in the drug-free control wells was 43% under normoxic and 30% under anoxic conditions.

In data set [2] the test system is MDA-MB-468 tumor xenograft. The data set is described as follows: breast cancer (TNBC) xenograft model. It counts as in vivo, BALB/c Nude Mice. The conditions noted are these: MDA-MB-468 xenograft.
The test system of the next data set is DMS 114 tumor xenograft. The data set is described as follows: lung cancer (SCLC) xenograft model. In kind it is in vivo, BALB/c Nude Mice. To be noted: DMS 114 xenograft; 600 mg/kg IP; hypoxic status confirmed. How it is done:
(§1) All animal models were established as xenograft model in BALB/c Nude Mice (6-8 weeks old, 17-23 grams, maintained in standard conditions and diet), following approved IACUC (Institutional Animal Care and Use Committees) protocols. Cpd.11 Ms was formulated using 2% dimethyl sulfoxide (DMSO in water for injection, starting from a Cpd.11 Ms main preparation (100-60 mg/ml in 2% DMSO in water for injection).
(§2) After tumor cell inoculation, the animals were checked daily for morbidity and mortality. Before commencement of treatment all animals were weighed and the tumor volumes were measured using a caliper. The treatments were started when the mean tumor size reached approx. 250 mm^3. […] At the time of routine monitoring, the animals were checked for any effects of tumor growth and treatments on normal behavior such as mobility, visual estimation of food and water consumption, body weight gain/loss (body weights were measured daily during the 5-day treatment and thrice weekly after treatment), eye/hair matting and any other abnormal effect. Death and observed clinical signs were recorded on the basis of the numbers of animals within each subset. […] The surrogate endpoint for survival was calculated and indicated as TVx4 (initial tumor volume times 4). […] All data were analyzed in SPSS (Statistical Product and Service Solutions) version 18.0 (IBM, Armonk, NY, U.S.). […]

The next data set concerns PANC-1 tumor xenograft. The data set is described as follows: pancreatic cancer (PDAC) xenograft model. In kind it is in vivo, BALB/c Nude Mice. The conditions noted are these: PANC-1 xenograft; for Anti-tumor effect: 600 mg/kg IP, hypoxic status confirmed, methanesulfonate, 600 mg/kg. How it is done:
as §1
After tumor cell inoculation, the animals were checked daily for morbidity and mortality. Before commencement of treatment all animals were weighed and the tumor volumes were measured using a caliper. The treatments were started when the mean tumor size reached approx. 250 mm^3. Each treated/control group contained 10 mice that were randomly assigned and injected daily for 5 days. The date of tumor cell inoculation was denoted as day 0 (thus injections were performed at day 1, 2, 3, 4, and 5). At the time of routine monitoring, the animals were checked for any effects of tumor growth and treatments on normal behavior such as mobility, visual estimation of food and water consumption, body weight gain/loss (body weights were measured daily during the 5-day treatment and thrice weekly after treatment), eye/hair matting and any other abnormal effect. Death and observed clinical signs were recorded on the basis of the numbers of animals within each subset. Tumor volumes were measured daily during the 5-day treatment and thrice weekly after treatment in two dimensions using a caliper, and the volume was expressed in mm3 using the formula: V=0.5 a×b2 where a and b are the long and short diameters of the tumor, respectively. The entire procedures of dosing as well as tumor and body weight measurement were conducted in a Laminar Flow Cabinet. Individual mice were euthanized by cervical dislocation when the tumor size reached 1400-1600 mm3. The surrogate endpoint for survival was calculated and indicated as TVx4 (initial tumor volume times 4). Statistical analysis of difference in tumor volume among the groups was conducted at the end of experiment using Independent-Samples T Test. All data were analyzed in SPSS (Statistical Product and Service Solutions) version 18.0 (IBM, Armonk, NY, U.S.). P-values were rounded to three decimal places, with the exception that raw P-values less than 0.001 were stated as P<0.001. All tests were two-sided. P<0.05 was considered to be statistically significant.
For the MDA-MB-436 tumor (ATCC: HTB-130; Passage: P4) cells were maintained in vitro as a monolayer culture in L-15 medium supplemented with 10% heat inactivated fetal bovine serum at 37° C. in an atmosphere of 100% air. […] The cells growing in an exponential growth phase were harvested and counted for tumor inoculation. […]

Data set [3] relates to MiaPaCa-2 tumor xenograft. In words: pancreatic cancer xenograft model. In kind it is in vivo, BALB/c Nude Mice. To be noted: MiaPaCa-2 xenograft, 600 mg/kg IP, hypoxic status absent, methanesulfonate. The protocol:
as §1, §2

Data set [4] is described as follows: water solubility for preparing injection dilution.

A value given as a limit tells only on which side of the number the result lay.

In general, solubility refers to how much of the substance goes into solution per volume. A low value points to a poorly soluble substance. `CCN1CCN(C(=O)c2cc(N(CCBr)CCOS(C)(=O)=O)c(S(C)(=O)=O)cc2[N+](=O)[O-])CC1.CS(=O)(=O)O` [Cpd.11 Ms, 4-(5-((2-bromoethyl) (2-((methylsulfonyl)oxy)ethyl)amino)-4-(methylsulfonyl)-2-nitrobenzoyl)-1-ethylpiperazin-1-ium methanesulfonate]: in data set [1], the “conversion of Cpd.11 Ms into Cpd.11c and Cpd.11d (FIG. 3B)” value is “strong and rapid ratio of conversion”. The Anti-tumor effect result in data set [2] (200-800 mg/kg IP, hypoxic status confirmed) is recorded as “Strong impact,”; in the data set with DMS 114 tumor xenograft, “Clear impact,”; in the data set on PANC-1 tumor xenograft (single treatment cycle, listed as Cpd.11Ms), “Clear impact,”; in the data set with PANC-1 tumor xenograft (single treatment cycle), “significant tumour growth retardation”; in data set [3] (listed as Cpd.11Ms), “No impact”; in data set [3], “not observed”. Also, the “impact on hypoxia by pimonidazole immunohistochemical staining” value in data set [2] (400-800 mg/kg from 1 to 5 consecutive days) is reported as “clear impact”. Besides, the body weight loss result with PANC-1 tumor xenograft (IP) is listed as “without major body weight loss”. The “increase in median surrogate survival index” value in the data set with PANC-1 tumor xenograft (single treatment cycle, P=0.0018) was “approx. 50%”. The solubility in data set [4] was at least 100 mg/mL.
